Measurements reported in patent US6255347A (priority 1997, dated 2001).
Where “and” joins values, the source holds several entries; their conditions need not be identical. Identical values can stand only once. Counter-ions that a name gives are not always drawn. Like-named read-outs stand apart in the source and are kept apart here. *1 amine or outer side, *2 acyl side, *3 side chain or, on linkers, in order; H or OH if unused. Where a SMILES comes first, the peptide text is derived from it. Bridges are numbered along the chain shown (N, C = ends). Roman numbers before positions name the chains, in order. [ ]: non-standard residue; d: D form. Actinocin(9to1) = Cc1c2oc3c(C)ccc(C(=O)[*:1])c3nc-2c(C(=O)[*:2])c(N)c1=O; NMeV = CN[C@H](C(=O)O)C(C)C; Sar = CNCC(=O)O

Legend:
[1] = test system: APPs secretion by NIH 3T3 cell lines; details: 50 μM; for Density of APPs band: 20 h culture, n = 2, mean ± S.D.
[2] = cited from earlier work

## CC(C(=O)O)c1ccc(-c2ccccc2)c(F)c1 (racemic) [RS-Flubiprofen]
[1]
  Density of APPs band: 3.07 ± 0.34

## Cc1c2oc3c(C)ccc(C(=O)N[C@@H]4C(=O)N[C@H](C(C)C)C(=O)N5CCC[C@H]5C(=O)N(C)CC(=O)N(C)[C@@H](C(C)C)C(=O)O[C@@H]4C)c3nc-2c(C(=O)N[C@@H]2C(=O)N[C@H](C(C)C)C(=O)N3CCC[C@H]3C(=O)N(C)CC(=O)N(C)[C@@H](C(C)C)C(=O)O[C@@H]2C)c(N)c1=O [Actinomycin D] (I: T[dV]P[Sar][NMeV] / II: T[dV]P[Sar][NMeV]; ester I:1-I:C, II:1-II:C; linker I:N-II:N via Actinocin(9to1))
[2]; in vivo
  elimination half-life: about 36 hr
  excreted in urine: 10%
  excreted intact into the bile (in words): Half of the dose
  passage of blood-brain barrier: does not pass the blood-brain barrier

## O=C(O)CCCc1ccc(N(CCCl)CCCl)cc1 [Chlorambucil, 4-[bis(2-chlorethyl)amino]benzenebutanoic acid]
[2]; in vivo
  terminal half-life: 1.5 h

## N.N.[Cl][Pt][Cl] [Cisplatin]
[2]; oral
  absorption (in words): not absorbed orally

## COc1cccc2c1C(=O)c1c(O)c3c(c(O)c1C2=O)C[C@@](O)(C(C)=O)C[C@@H]3O[C@H]1C[C@H](N)[C@H](O)[C@H](C)O1 [Daunorubicin, 5,12-Naphthacenedione, (8S-cis)-8-acetyl-10-[(3-amino-2,3,6-trideoxy-α-L-lyxo-hexanopyranosyl)oxy]-7,8,9,10-tetrahydro-6,8, 11-trihydroxy-10-methoxy-, hydrochloride]
[2]; in vivo, po
  absorption (in words): Oral absorption is poor
[2]; in vivo
  secreted into the bile: ~40%

## COc1cccc2c1C(=O)c1c(O)c3c(c(O)c1C2=O)C[C@@](O)(C(=O)CO)C[C@@H]3O[C@H]1C[C@H](N)[C@H](O)[C@H](C)O1 [Doxorubicin, 5,12-Naphthacenedione, (8s-cis)-10-[(3-amino-2,3,6-trideoxy-a-L-lyxo-hexopyranosyl)oxy]-7,8,9,10-tetrahydro-6,8,11 trihydroxy-8-(hydroxyacetyl)-1-methoxy-hydrochloride]
[2]; in vivo, po
  absorption (in words): absorbed poorly
[2]; in vivo
  elimination half-life: about 30 hr
  excreted in urine: a few percent

## CO[C@@]12[C@H](COC(N)=O)C3=C(C(=O)C(C)=C(N)C3=O)N1C[C@@H]1N[C@@H]12 [Mitomycin]
[2]; human, in vivo, iv
  time required to reduce the serum concentration by 50%: 17 min
[2]; in vivo, iv
  clearance from serum (in words): rapidly cleared from the serum
[2]; in vivo
  excreted in urine: Approximately 10%

## CN1C(C(=O)Nc2ccccn2)=C(O)c2ccccc2S1(=O)=O [Proxicam]
[1]
  Density of APPs band: 3.29 ± 0.77

## C[C@@H](C(=O)O)c1ccc(-c2ccccc2)c(F)c1 [R-Flubiprofen]
[1]
  Density of APPs band: 3.30 ± 0.81

## C[C@@H](C(=O)O)c1cccc(C(=O)c2ccccc2)c1 [R-Ketoprofen]
[1]
  Density of APPs band: 3.41 ± 0.39 and 2.74 ± 0.34

## CC(C(=O)O)c1cccc(C(=O)c2ccccc2)c1 (stereo not shown) [RS-Ketoprofen]
[1]
  Density of APPs band: 3.67 ± 0.27 and 2.94 ± 0.98

## C[C@H](C(=O)O)c1ccc(-c2ccccc2)c(F)c1 [S-Flubiprofen]
[1]
  Density of APPs band: 2.37 ± 0.66

## C[C@H](C(=O)O)c1cccc(C(=O)c2ccccc2)c1 [S-Ketoprofen]
[1]
  Density of APPs band: 2.99 ± 0.57 and 3.76 ± 1.26

## CC[C@]1(O)C[C@H]2CN(CCc3c([nH]c4ccccc34)[C@@](C(=O)OC)(c3cc4c(cc3OC)N(C=O)[C@H]3[C@@](O)(C(=O)OC)[C@H](OC(C)=O)[C@]5(CC)C=CCN6CC[C@]43[C@@H]65)C2)C1 [Vincristine]
[2]; in vivo
  concentration in blood cells (in words): extensively concentrated in platelets and to a lesser extent in leukocytes and erythrocytes
[2]; oral
  absorption (in words): Unpredictable absorption

## COc1cccc2c1C(=O)c1c(O)c3c(c(O)c1C2=O)C[C@@](O)(C(C)O)C[C@@H]3O[C@H]1C[C@H](N)[C@H](O)[C@H](C)O1 (stereo partly shown) [daunorubicinol]
[2]; in vivo
  elimination half-life: about 27 hr

## CC(C(=O)O)c1cccc(Oc2ccccc2)c1 (stereo not shown) [fenoprofen]
[1]; 20 h
  APPs secretion (in words): increased APPs secretion
